In patent US20250320213A1, “Nitrogen-Containing Heterocyclic Compounds” (Pfizer Inc., priority 2024, published 2025):

Key:
[1] = tested on: CCL17 secretion in peripheral human whole blood; experiment: Human Whole Blood (HWB) CCL17 TR-FRET Assay (IL-13 stimulated CCL17 secretion); type: cell-based; settings: inhibition of CCL17 secretion in human whole blood, 10 ng/mL IL13, 48 hours
How it was run: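 Measured here: CCL17 in serum by TR-FRET (665/615 nm) after overnight (16 h) room-temperature detection. The blood, heparinized and compound-treated for 2 h, received IL-13 at 10 ng/mL final and was cultured 48 h at 37 °C.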

STAT6 = target: T1, STAT6 (Homo sapiens, UniProt P42226); experiment: STAT6 Reporter Luciferase Assay (IL-13 stimulated HaCaT keratinocyte NanoLuc reporter cells); type: cell-based; settings: STAT6 NanoLuc luciferase reporter, IL-13 stimulated HaCaT keratinocyte cells; read-out: Reporter EC50
T1 construct: stably transfected HaCaT keratinocyte cell line, which expresses NanoLuc luciferase reporter gene under the transcriptional control of the STAT6 responsive promoter; endogenous in cells; host or cells: HaCaT keratinocyte reporter cell line (stably transfected with a NanoLuc reporter)
T1 sequence (P42226 1-847): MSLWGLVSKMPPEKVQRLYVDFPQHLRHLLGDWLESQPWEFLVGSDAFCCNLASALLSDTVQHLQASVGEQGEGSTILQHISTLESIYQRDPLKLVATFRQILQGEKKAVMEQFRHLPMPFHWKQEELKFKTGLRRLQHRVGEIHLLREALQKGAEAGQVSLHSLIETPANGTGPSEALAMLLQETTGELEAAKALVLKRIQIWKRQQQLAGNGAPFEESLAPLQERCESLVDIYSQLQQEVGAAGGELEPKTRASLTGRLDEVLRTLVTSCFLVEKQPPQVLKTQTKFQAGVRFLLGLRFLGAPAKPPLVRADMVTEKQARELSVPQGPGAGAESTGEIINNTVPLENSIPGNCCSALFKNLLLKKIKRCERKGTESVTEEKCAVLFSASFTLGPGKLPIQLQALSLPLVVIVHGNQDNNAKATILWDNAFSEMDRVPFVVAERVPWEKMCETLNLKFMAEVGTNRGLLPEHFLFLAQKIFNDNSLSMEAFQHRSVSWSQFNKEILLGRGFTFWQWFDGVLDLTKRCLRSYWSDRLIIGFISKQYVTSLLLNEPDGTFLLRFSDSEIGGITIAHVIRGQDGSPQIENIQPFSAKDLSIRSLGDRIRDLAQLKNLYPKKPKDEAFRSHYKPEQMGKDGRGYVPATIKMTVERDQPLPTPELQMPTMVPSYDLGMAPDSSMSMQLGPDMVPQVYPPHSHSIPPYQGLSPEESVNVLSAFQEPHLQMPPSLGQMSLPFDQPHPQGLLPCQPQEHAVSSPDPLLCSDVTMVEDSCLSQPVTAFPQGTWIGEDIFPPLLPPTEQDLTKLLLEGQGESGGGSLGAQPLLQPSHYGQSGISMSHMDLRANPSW
How it was run: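 Luminescence from a NanoLuc reporter driven by the STAT6-responsive IL-13Ra2 promoter in HaCaT keratinocytes serves as the read-out. Compounds are given 2 h before a 4 h stimulation with 0.12 nM IL-13.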

| Compound | IC50 ([1]; Homo sapiens, 48 h) [nM] | EC50 (STAT6) [nM] | IC50 [1] [nM] |
| --- | --- | --- | --- |
| CC(C)n1nc(C(=O)NCc2ccc(NC(=O)N(C)C)cc2)c2c1CCN(c1ncc(C(=O)N(C)C)cn1)C2 [Example 35, 5-(5-(Dimethylcarbamoyl)pyrimidin-2-yl)-N-(4-(3,3-dimethylureido)benzyl)-1-isopropyl-4,5,6,7-tetrahydro-1H-pyrazolo[4,3-c]pyridine-3-carboxamide] | – | 9 | 47 |
| CCn1nc(C(=O)NCc2ccc(NC(=O)N(C)C)cc2)c2c1CCN(c1ccc(N3CCCC3=O)cn1)C2 [Example 36, N-(4-(3,3-Dimethylureido)benzyl)-1-ethyl-5-(5-(2-oxopyrrolidin-1-yl)pyridin-2-yl)-4,5,6,7-tetrahydro-1H-pyrazolo[4,3-c]pyridine-3-carboxamide] | 254 | 24 | – |
| CC(=O)N1CCCc2cc(N3CCc4c(c(C(=O)NCc5ccc(NC(=O)N(C)C)cc5)nn4C(C)C)C3)ccc21 [Example 37, 5-(1-Acetyl-1,2,3,4-tetrahydroquinolin-6-yl)-N-(4-(3,3-dimethylureido)benzyl)-1-isopropyl-4,5,6,7-tetrahydro-1H-pyrazolo[4,3-c]pyridine-3-carboxamide] | 701 | 30 | – |
| CC(C)n1nc(C(=O)NCc2ccc(-c3ncc[nH]3)cc2)c2c1CCN(c1ccc(N3CCCC3=O)cn1)C2 [Example 38, N-(4-(1H-imidazol-2-yl)benzyl)-1-isopropyl-5-(5-(2-oxopyrrolidin-1-yl)pyridin-2-yl)-4,5,6,7-tetrahydro-1H-pyrazolo[4,3-c]pyridine-3-carboxamide] | 1640 | 72 | – |
| CC(C)n1nc(C(=O)NCc2ccc(NC(=O)N(C)C)cc2)c2c1CCN(c1ccc(C(=O)NCc3ccc(NC(=O)N(C)C)cc3)cn1)C2 [Example 39, N-(4-(3,3-Dimethylureido)benzyl)-5-(5-((4-(3,3-dimethylureido)benzyl)carbamoyl)pyridin-2-yl)-1-isopropyl-4,5,6,7-tetrahydro-1H-pyrazolo[4,3-c]pyridine-3-carboxamide] | > 30000 | 748 | – |
| CC(C)n1nc(C(=O)NCc2ccc(-c3nnc[nH]3)cc2)c2c1CCN(c1ccc(C(=O)N(C)C)cn1)C2 [Example 40, N-(4-(4H-1,2,4-triazol-3-yl)benzyl)-5-(5-(dimethylcarbamoyl)pyridin-2-yl)-1-isopropyl-4,5,6,7-tetrahydro-1H-pyrazolo[4,3-c]pyridine-3-carboxamide] | 324 | 38 | – |
| CN(C)C(=O)Nc1ccc(CNC(=O)c2nc(C(F)(F)F)n3c2CN(c2ccc(-c4nccn4C)cn2)CC3)cc1 [Example 42, N-(4-(3,3-Dimethylureido)benzyl)-7-(5-(1-methyl-1H-imidazol-2-yl)pyridin-2-yl)-3-(trifluoromethyl)-5,6,7,8-tetrahydroimidazo[1,5-a]pyrazine-1-carboxamide] | 136 | 10 | – |
| CC(C)n1nc(C(=O)NCc2ccc(-c3nccc(=O)[nH]3)cc2)c2c1CCN(c1ccc(C(=O)N(C)C)cn1)C2 [Example 43, 5-(5-(Dimethylcarbamoyl)pyridin-2-yl)-1-isopropyl-N-(4-(6-oxo-1,6-dihydropyrimidin-2-yl)benzyl)-4,5,6,7-tetrahydro-1H-pyrazolo[4,3-c]pyridine-3-carboxamide] | 1300 | 286 | – |
| CC(C)n1nc(C(=O)NCc2ccc(-c3cccc(=O)[nH]3)cc2)c2c1CCN(c1ccc(C(=O)N(C)C)cn1)C2 [Example 44, 5-(5-(dimethylcarbamoyl)pyridin-2-yl)-1-isopropyl-N-(4-(6-oxo-1,6-dihydropyridin-2-yl)benzyl)-4,5,6,7-tetrahydro-1H-pyrazolo[4,3-c]pyridine-3-carboxamide] | 5400 | 503 | – |
| CN(C)C(=O)Nc1ccc(CNC(=O)c2nn(C3CC3)c3c2CN(c2ccc(-c4nccn4C)cn2)CC3)cc1 [Example 46, 1-cyclopropyl-N-(4-(3,3-dimethylureido)benzyl)-5-(5-(1-methyl-1H-imidazol-2-yl)pyridin-2-yl)-4,5,6,7-tetrahydro-1H-pyrazolo[4,3-c]pyridine-3-carboxamide] | 110 | 9 | – |
| Cc1ccn(-c2ccc(N3CCc4c(c(C(=O)NCc5ccc(NC(=O)N(C)C)cc5)nn4C(C)C)C3)nc2)n1 [Example 47, N-(4-(3,3-dimethylureido)benzyl)-1-isopropyl-5-(5-(3-methyl-1H-pyrazol-1-yl)pyridin-2-yl)-4,5,6,7-tetrahydro-1H-pyrazolo[4,3-c]pyridine-3-carboxamide] | > 30000 | 1180 | – |
| CNC(=O)c1ccc(CNC(=O)c2csc3c2CN(c2ccc(C(=O)N(C)C)cn2)CC3)cc1 [Example 48, 5-(5-(dimethylcarbamoyl)pyridin-2-yl)-N-(4-(methylcarbamoyl)benzyl)-4,5,6,7-tetrahydrothieno[3,2-c]pyridine-3-carboxamide] | 3960 | 952 | – |
| C[C@@H]1Cc2c(c(C(=O)NCc3ccc(NC(=O)N(C)C)cc3)nn2C)CN1c1ccc(C(=O)N(C)C)cn1 [Example 50, (R)-5-(5-(dimethylcarbamoyl)pyridin-2-yl)-N-(4-(3,3-dimethylureido)benzyl)-1,6-dimethyl-4,5,6,7-tetrahydro-1H-pyrazolo[4,3-c]pyridine-3-carboxamide] | 151 | 35 | – |

Now from value to compound, other results behind:

| IC50 ([1]; Homo sapiens, 48 h) [nM] | EC50 (STAT6) [nM] | Compound | IC50 [1] [nM] |
| --- | --- | --- | --- |
| 40 | 9 | CC(C)c1nc(C(=O)NCc2ccc(NC(=O)N(C)C)cc2)c2n1CCN(c1ccc(C(=O)N(C)C)cn1)C2 [Example 32, 7-(5-(dimethylcarbamoyl)pyridin-2-yl)-N-(4-(3,3-dimethylureido)benzyl)-3-isopropyl-5,6,7,8-tetrahydroimidazo[1,5-a]pyrazine-1-carboxamide] | – |
| 35 | 2 | CC(C)n1nc(C(=O)NCc2ccc(NC(=O)N(C)C)cc2)c2c1CCN(c1ccc(C(=O)N3Cc4cccnc4C3)cn1)C2 [Example 33, 5-(5-(6,7-dihydro-5H-pyrrolo[3,4-b]pyridine-6-carbonyl)pyridin-2-yl)-N-(4-(3,3-dimethylureido)benzyl)-1-isopropyl-4,5,6,7-tetrahydro-1H-pyrazolo[4,3-c]pyridine-3-carboxamide] | – |
| 71 | 8 | CC(C)n1nc(C(=O)NCc2ccc(NC(=O)N(C)C)cc2)c2c1CCN(c1ncc(-c3nccn3C)cn1)C2 [Example 34, N-(4-(3,3-Dimethylureido)benzyl)-1-isopropyl-5-(5-(1-methyl-1H-imidazol-2-yl)pyrimidin-2-yl)-4,5,6,7-tetrahydro-1H-pyrazolo[4,3-c]pyridine-3-carboxamide] | – |
| 93 | 3 | Cc1ccnn1-c1ccc(N2CCc3c(c(C(=O)NCc4ccc(NC(=O)N(C)C)cc4)nn3C(C)C)C2)nc1 [Example 41, N-(4-(3,3-Dimethylureido)benzyl)-1-isopropyl-5-(5-(5-methyl-1H-pyrazol-1-yl)pyridin-2-yl)-4,5,6,7-tetrahydro-1H-pyrazolo[4,3-c]pyridine-3-carboxamide] | – |
| 50 | 4 | CC(C)n1nc(C(=O)NCc2ccc(NC(=O)N(C)C)cc2)c2c1CCN(c1ccc(-c3nccn3C)cn1)C2 [Example 45, N-(4-(3,3-Dimethylureido)benzyl)-1-isopropyl-5-(5-(1-methyl-1H-imidazol-2-yl)pyridin-2-yl)-4,5,6,7-tetrahydro-1H-pyrazolo[4,3-c]pyridine-3-carboxamide] | – |
| 30 | 4 | C[C@H]1Cc2c(c(C(=O)NCc3ccc(NC(=O)N(C)C)cc3)nn2C)CN1c1ccc(C(=O)N(C)C)cn1 [Example 51, (S)-5-(5-(dimethylcarbamoyl)pyridin-2-yl)-N-(4-(3,3-dimethylureido)benzyl)-1,6-dimethyl-4,5,6,7-tetrahydro-1H-pyrazolo[4,3-c]pyridine-3-carboxamide] | – |
| 64 | 9 | CN(C)C(=O)Nc1ccc(CNC(=O)c2nc(C(C)(F)F)n3c2CN(c2ccc(C(=O)N(C)C)cn2)CC3)cc1 [Example 52, 3-(1,1-difluoroethyl)-7-(5-(dimethylcarbamoyl)pyridin-2-yl)-N-(4-(3,3-dimethylureido)benzyl)-5,6,7,8-tetrahydroimidazo[1,5-a]pyrazine-1-carboxamide] | – |
